PMC4204381 (Computational and Structural Biotechnology Journal, 2014)
Where two headings read alike, the source gives them in different places.

Key:
Male Sprague–Dawley rats [1] = assay type: in vivo, rat; settings: p < 0.05; for Oleoylcarnitine blood level vs control: Fig. 4A; for Palmitoylcarnitine blood level vs control: Fig. 4B; for LysoPC(20:1) blood level vs control: Fig. 4C
patients = settings: cited from earlier work
Male Sprague–Dawley rats [2] = assay: Histopathology and tissue observations in rats after a single oral dose; settings: for hepatic vacuolization / hepatic necrosis: low and high doses, 6 or 24 h
Male Sprague–Dawley rats [3] = assay: Clinical chemistry; settings: for clinical chemistry changes (ALT, AST, ALP): low dose, 6 or 24 h

Structure (SMILES) | Oleoylcarnitine blood level vs control (Male Sprague–Dawley rats [1]; 6 h) | Palmitoylcarnitine blood level vs control (Male Sprague–Dawley rats [1]; 6 h) | LysoPC(20:1) blood level vs control (Male Sprague–Dawley rats [1]; 6 h) | Palmitoylcarnitine blood level vs control (Male Sprague–Dawley rats [1]; 24 h) | LysoPC(20:1) blood level vs control (Male Sprague–Dawley rats [1]; 24 h) | hepatic vacuolization / hepatic necrosis (Male Sprague–Dawley rats [2]) | clinical chemistry changes (ALT, AST, ALP) (Male Sprague–Dawley rats [3]) | further results
CC(=O)Nc1ccc(O)cc1 [APAP, acetaminophen] | significantly increased | significantly increased | significantly decreased | appeared to be increased | appeared to be decreased | – | – | Oleoylcarnitine blood level vs control (Male Sprague–Dawley rats [1]; 24 h): significantly increased
Nc1c2c(nc3ccccc13)CCCC2 [tacrine] | – | – | – | – | – | – | – | ALT increase with no liver cell injury (patients; human, in vivo): > 20 fold of the upper limit of normal
Cc1cnc(NC(=O)C2=C(O)c3ccccc3S(=O)(=O)N2C)s1 [MEL, meloxicam] | – | significantly increased | – | – | appeared to be decreased | neither hepatic vacuolization nor hepatic necrosis | – | inflammation in the capsule of kidney (incidence) (Male Sprague–Dawley rats [2]; rats treated with MEL for 24 h): 1 out of 5; inflammation in the capsule of liver (incidence) (Male Sprague–Dawley rats [2]; rats treated with MEL for 24 h): 2 out of 5; ALT increase of the ALT value of the control group (Male Sprague–Dawley rats [3]; 24 h, high dose group): < 2 fold
CN(C)C(=N)N=C(N)N [MET, metformin] | significantly increased | – | – | – | – | neither hepatic vacuolization nor hepatic necrosis | did not have any clinical chemistry changes | Taurocholic acid blood level vs control (Male Sprague–Dawley rats [1]; 6 h, Fig. 4D): significantly decreased; cases of liver injury reported to be associated with MET (patients; by 2012, concomitant intake of other potential hepatotoxicants): < 10 cases; ALT increase of ALT value in control group (Male Sprague–Dawley rats [3]; 6 h, high dose): < 3 fold
NC(=O)OCC(COC(N)=O)c1ccccc1 [FEL, felbamate] | – | – | significantly decreased | appeared to be increased | significantly decreased | neither hepatic vacuolization nor hepatic necrosis | did not have any clinical chemistry changes | –
O=C1CN(/N=C/c2ccc(-c3ccc([N+](=O)[O-])cc3)o2)C(O)=N1 [DAN, dantrolene] | – | significantly increased | – | – | significantly decreased | neither hepatic vacuolization nor hepatic necrosis | – | incidence of hepatotoxicity (patients; patients): 0.35%
